The source of these data is patent US7361643B2, “Methods for inhibiting angiogenesis” (University of Puerto Rico, priority 2000, dated 2008).

This assay concerns bovine adrenal medullary microvascular endothelial cells. In words: Morphology by light microscopy and scanning electron microscopy. It counts as cell-based. As to conditions: 1 μg/ml tunicamycin, 2% (v/v) FBS. Here is the method:
The synchronized population of the above described bovine capillary endothelial cells was exposed to tunicamycin (lot number 10922120-07 from Boehringer-Mannheim, Indianapolis, Ind.) with no history of protein synthesis inhibition, for different lengths of time at various concentrations, as shown, e.g., in FIG. 3, in a complete EMEM containing 2% (v/v) fetal bovine serum (FBS) (heat-inactivated) at 37° C. to evaluate the morphological changes. The cells were monitored by phase-contrast light microscopy as well as by scanning electron microscopy.
For scanning electron microscopy, 5×10^3 cells were cultured on 13 mm round Thermanox coverslips in 12 well clusters (COSTAR) in complete EMEM. Cells were synchronized as mentioned above and cultured in EMEM containing either 2% (v/v) FBS (control), 10% (v/v) FBS or 2% (v/v) FBS plus 1 μg/ml tunicamycin. The coverslips were removed at specified times and the cells were fixed in 2.5% (v/v) glutaraldehyde for 30 minutes. The cells were washed three times (10 minutes each) with Millonigs (1961) isotonic phosphate buffer, pH 7.3, and treated with 1% (w/v) osmium tetroxide for 15 minutes. See MILLONIG, “Advantages of a Phosphate Buffer for Osmium Tetroxide Solutions in Fixation”, J. Appl. Physics, 32:1637 (1961), the disclosure of which is herein incorporated by reference in its entirety. […]

“Also recorded” adds a separate entry of the source.

As to tunicamycin, the “morphology by light microscopy” value was “cell shrinkage, loss of membrane contact with neighboring cells, apparent compaction of nuclei showing condensed pyknotic appearance and membrane fragmentation; also recorded: cell shrinkage, loss of membrane contact with neighboring cells, apparent compaction of nuclei showing condensed pyknotic appearance, and membrane fragmentation”. For the same substance, where the note is “96 hours”, the “surface morphology by scanning electron microscopy” value is on record as “considerable surface blebbing; also recorded: enormous surface blebbing”.
